Laboratory results: the OPERA property sets (Mansouri et al. 2018)
Peptide text beside a SMILES is read from it.

Point of comparison: `C=CC1(C)OC(=O)N(c2cc(Cl)cc(Cl)c2)C1=O` (stereo unspecified), logP 3.1. Against it:
- O=C(O)COc1ccc2c(c1)CCCC2 — lower, 2.67
- CCOC(=O)CON=Cc1ccc(OCCOC(=O)CC)c(OC)c1 — lower, 2.39
- NC(=O)CCl — lower, -0.53
- CCOC(=O)C(=Cc1ccc(OC)cc1)C(C)=O — lower, 2.46
- c1ccc2c(c1)OCO2 — lower, 2.08
- O=Nc1ccc(O)cc1 — lower, 1.29
- O=C1C(=O)c2cccc3cccc1c23 — lower, 1.95
- CC(C)(C)C — within 0.2 log units, 3.11
- CCCCCC[N+](=O)[O-] — lower, 2.7
- C(=NN1CCCCC1)c1ccccc1 — within 0.2 log units, 3.04
- O=c1[nH]c(=O)c2[nH]cnc2[nH]1 — lower, -0.73
- CC(O)Cc1ccccc1 (stereo unspecified) — lower, 1.97
- OCC1CC1c1ccccc1 (stereo unspecified) — lower, 1.95
- O=C(C=Cc1ccccc1)OCC=Cc1ccccc1 — higher, 4.45
- COP(=S)(OC)SCC(=O)N(C)C=O — lower, 1.48
- N#C/C=C/C#N — lower, -0.25
- CN(C)C(=O)OCc1cccc(N(C)C)c1 — lower, 2.28
- OC[C@@H](O)[C@@H](O)CO — lower, -2.29
- CC(C)(C)c1ccccn1 — lower, 2.4
- CN(C)C(=O)OCc1cccc(Cl)c1 — lower, 2.82
- CC(=O)NC(Cc1ccc(O)cc1)C(N)=O (stereo unspecified) — lower, -0.87
- Nc1cnnc2ccccc12 — lower, 1.04
- OCCBr — lower, 0.23
- Nc1nc(N)c2ccccc2n1 — lower, 1
- CCCCCCOc1ccc(NC(=O)OCCN2CCCCC2)cc1 — higher, 5.41
- O=C(O)COc1ccc(S(=O)(=O)F)cc1 — lower, 1.82
- O=S1(=O)Nc2ccccc2N1 — lower, 1.12
- CCN(C)N=Nc1ccc(C(N)=O)cc1 — lower, 1.69
- NNC(=O)c1cccc(O)c1 — lower, -0.08
- COc1ccccc1NC(C)=O — lower, 0.67
- CCCCOc1cccc(C=C(C(=O)OCC)C(=O)OCC)c1 — higher, 4.03
- O=C(Nc1cccc2cccnc12)C(F)(F)F — within 0.2 log units, 3.24
- CCC(C)(C)C — higher, 3.82
- ON=Cc1ccncc1 — lower, 0.77
- O=P1(N(CCCl)CCCl)NCCCO1 (stereo unspecified) — lower, 0.63
- NC(=O)c1cccc([N+](=O)[O-])c1 — lower, 0.77
- COc1ccc(N)cc1Cl — lower, 1.85
- CNC(=O)ON=C(C)SC — lower, 0.6
- CC(NNC(=O)COc1ccccc1)c1ccccc1 (stereo unspecified) — lower, 2.46
- CCOC(=O)n1cc(F)c(=O)[nH]c1=O — lower, -0.17
- Cc1cccc(Nc2ccccc2C(=O)O)c1C — higher, 5.12
- CNc1c(NCCSCc2nc[nH]c2C)c(=O)c1=O — lower, -0.08
- Cc1c(NC(=O)C(C)N(C)C)c(=O)n(-c2ccccc2)n1C (stereo unspecified) — lower, -0.05
- NC(=O)c1cccc(N)c1 — lower, -0.33
- CCCCCSCS(=O)CC(CO)NC(=O)C=Cc1c(C)[nH]c(=O)[nH]c1=O (stereo unspecified) — lower, 0.6
- Cc1n[nH]c(C(=O)N(C)Cc2ccccc2)c1[N+](=O)[O-] — lower, 1.65
- CCC(C)[N+](=O)[O-] (stereo unspecified) — lower, 1.2
- CC(C)c1ccccc1O — lower, 2.88
- N#Cc1ccc(OCC(=O)O)cc1 — lower, 0.93
- O=C(Nc1ccn(C2OC(CO)C(O)C2O)c(=O)n1)c1ccccc1 (stereo unspecified) — lower, 0.3
- CCOC(=O)CN(C(=O)CCl)c1c(CC)cccc1CC — higher, 3.6
- CC(C)c1cccc(OCC(=O)O)c1 — lower, 2.59
- NCC(F)(F)F — lower, 0.24
- CCCCOC(=O)c1ccc(O)cc1 — higher, 3.57
- CC(=O)NC(C)C(=O)NC(Cc1ccc(O)cc1)C(=O)NC(Cc1ccccc1)C(N)=O (stereo not drawn) (Ac-Ala-Tyr-Phe-NH2; configuration not given here) — lower, 0.26
- c1ccc2c(c1)Cc1ccccc1C2 — higher, 4.25
- COC1=C(N2CC2)C(=O)C(OC)=C(N2CC2)C1=O — lower, 0.17
- FC(Cl)(Cl)Cl — lower, 2.53
- CNC(=O)c1[nH]nc(C)c1[N+](=O)[O-] — lower, -0.23
- CC(=O)c1cccc(C#N)c1 — lower, 1.16
- Brc1ccccn1 — lower, 1.42
- Oc1cccc2cccnc12 — lower, 2.02
- CCOP(=O)(Cc1ccc(-c2nc3ccccc3s2)cc1)N1CCCC1=O (stereo unspecified) — within 0.2 log units, 3
- CCN(CC)c1nc(C)cc(OP(=S)(OC)OC)n1 — higher, 4.2
- C=CCOc1ccccc1 — within 0.2 log units, 2.94
- CC1N=C(c2ccccc2)c2cc(Cl)ccc2NC1=O (stereo unspecified) — higher, 3.33
- Nc1cc(N2CCCCC2)nc(N)[n+]1[O-] — lower, 1.24
- CCOP(=O)(N=C1SCC(C)S1)OCC (stereo unspecified) — lower, 1.04
- Cc1cccnc1 — lower, 1.2
- CCC(CNC)c1ccccc1 (stereo unspecified) — lower, 2.82
- [N-]=[N+]=NC1CC(n2cnc3c(=O)[nH]c(N)nc32)OC1CO (stereo unspecified) — lower, -0.33
- O=C(OCc1ccccc1)n1c(=O)[nH]cc(F)c1=O — lower, 1.42
- COC(=O)CCC(=O)OCC(=O)C1(O)CCC2C3CCC4=CC(=O)CCC4(C)C3C(O)CC21C (stereo unspecified) — lower, 2.6
- CNC(=O)CSP(=S)(OC)OC — lower, 0.78
- CC(=O)Nc1cc(C(=O)NN)ccn1 — lower, -1.25
- O=Cc1ccoc1 — lower, 0.51
- CC12CCC(=O)C=C1CCC1C2C(O)CC2(C)C1CCC2(O)C(=O)COC(=O)CCCCCO (stereo unspecified) — lower, 2.79
- CCN(CC)C(=O)N(C)N=O — lower, 1.11
- Clc1ccc(-c2ccc(Cl)c(Cl)c2Cl)c(Cl)c1Cl — higher, 7.31
- Cc1cc(=O)oc2cc(O)ccc12 — lower, 1.9
- O=C(Nc1ccccc1)Oc1ccccc1 — higher, 3.3
- C[C@@H]1C[C@@]2(C)[C@@H](CC[C@@H]3[C@@H]2CC[C@]2(C)[C@@H](O)CC[C@@H]32)CC1=O — higher, 3.99
- CCCN(CCC)CCC — lower, 2.79
- CC(=O)c1ccccc1Cl — lower, 2.09
- CC(C)Br — lower, 2.14
- O=S(Cc1ccccc1)Cc1ccccc1 — lower, 1.99
- CC(=O)c1cccc(OC(=O)N(C)C)c1 — lower, 1.18
- N#Cc1cccc(C(=O)O)c1 — lower, 1.48
- CNC1=CC(=O)c2ccccc2C1=O — lower, 1.74
- CCN(CC)CCNC(=O)c1cc(C#N)c(N)cc1OC — lower, 1.94
- Nc1ccc(C(=O)Oc2cccc(Cl)c2)c(O)c1 — higher, 3.9
- COC(=O)CCCCC(=O)OC — lower, 1.03
- CSc1ccccc1 — lower, 2.74
- CN(C)c1ccc(C=C[N+](=O)[O-])cc1 — lower, 2.67
- OCCCCCl — lower, 0.85
- COC(=O)CCCCCC(=O)OCC(=O)C1(O)CCC2C3CCC4=CC(=O)CCC4(C)C3C(O)CC21C (stereo unspecified) — higher, 3.7
- CCC=O — lower, 0.59
- CCCCOC(=O)c1cc(O)c(O)c(O)c1 — lower, 2.41
- CN1CCN(CC(=O)N/N=C/c2ccc([N+](=O)[O-])o2)CC1 — lower, -0.1
- Cc1ccccc1C#N — lower, 2.21
- COc1cccc2c1C(=N)c1c(O)c3c(c(O)c1C2=O)CC(O)(C(=O)CO)CC3OC1CC(N2CCOCC2)C(O)C(C)O1 (stereo unspecified) — lower, 1.8
- CN1CCC=C1c1cccnc1 — lower, 1.13
- COc1ccccc1C(=O)c1ccncc1 — lower, 1.86
- O=C(Nc1ccccc1)c1ccccc1O — within 0.2 log units, 3.27
- O=NN(CCCl)C(=O)NC1CCC(C(=O)O)CC1 (stereo unspecified) — lower, 1.68
- CCC(=O)c1ccncc1 — lower, 0.77
- CCC(=O)OC1(C(=O)CCl)C(C)CC2C3CCC4=CC(=O)C=CC4(C)C3C(=O)CC21C (stereo unspecified) — higher, 3.3
- COc1ccc(C(=O)O)cc1OC — lower, 1.61
- CCCCCC(=O)O — lower, 1.92
- COC(=O)c1cnc([N+](=O)[O-])n1C — lower, 0.51
- O=C(O)C1c2ccccc2Oc2ccccc21 — lower, 2.23
- CS(C)(=O)=O — lower, -1.41
- Cc1cccc(OC(=O)c2ccc(N)cc2O)c1 — higher, 3.64
- Cc1ccc(S(I)=C(N(C)C)N(C)C)cc1 (stereo unspecified) — lower, -0.1
- CCOc1ccccc1O — lower, 1.68
- OCCCCl — lower, 0.5
- CCCOc1cn[nH]c1 — lower, 1.42
- O=C1C=C(NCCO)C(=O)c2ccccc21 — lower, 1.23
- NC(=O)CCCc1ccccn1 — lower, -0.01
- COc1ccccc1C=C(C(C)=O)C(C)=O — lower, 1.73
- Nc1ccc2cc3ccc(N)cc3nc2c1 — lower, 1.83
- CS(=O)(=O)Nc1ccc(Cl)cc1 — lower, 1.85
- CCC(C)c1ccccc1OC(=O)NC (stereo unspecified) — lower, 2.78
- Cn1cnc([N+](=O)[O-])c1Sc1ncnc2nc[nH]c12 — lower, 0.1
- Nc1ncnc2c1ncn2[C@@H]1O[C@@H]2COP(=O)(O)O[C@H]2[C@H]1O — lower, -2.96
- Cn1nnc2ccccc2c1=O — lower, 0.84
- O=C1CCC(=O)N1c1ccccc1F — lower, 0.22
- CCC(C)c1ccccc1OCC(=O)O (stereo unspecified) — higher, 3.32
- CN(C)C(=O)Oc1ccccc1 — lower, 1.56
- CCCCOCN(C(=O)CCl)c1c(CC)cccc1CC — higher, 4.5
- CCCCCCOC(=O)C(CC)C(CO)Cc1cncn1C (stereo unspecified) — lower, 2.71
- c1ccc(SSc2ccccc2)cc1 — higher, 4.41
- C=CC — lower, 1.77
- FC(F)(F)c1nc2ccc(Cl)cc2[nH]1 — higher, 3.39
- COc1ccc(CC(=O)O)cc1 — lower, 1.42
- CCOC(=O)c1cc(O)c(O)c(O)c1 — lower, 1.3
- Cc1ccc(Cl)cc1Cl — higher, 4.24
- Cc1cnccn1 — lower, 0.21
- CN(C)c1cccc2cccnc12 — lower, 2.73
- O=C(O)CSc1ccccc1 — lower, 1.88
- Cc1cccc(C(=O)O)c1O — lower, 2.86
- CNC(=O)Oc1cccc(C=O)c1 — lower, 0.92
- CC(=O)N[C@@H](CC(N)=O)C(=O)N[C@H](C(N)=O)C(C)C — lower, -1.85
- CN(C)c1nc(N(C)C)nc(N(C)C)n1 — lower, 2.73
- COc1ccccc1Oc1ccccc1 — within 0.2 log units, 2.92
- CCc1ccc([N+](=O)[O-])cc1 — within 0.2 log units, 3.03
- Cc1cncc(C)c1 — lower, 1.78
- O=I(=O)c1ccccc1 — lower, -1.33
- C1COCCOCCOCCO1 — lower, -0.04
- Cc1nn(-c2ccccc2)c(C)c1N=O — lower, 2.28
- CN(C)N=O — lower, -0.57
- CCCN(CCC)CC(=O)OCn1ncc2c(=O)[nH]cnc21 — lower, 1.27
- CC[C@H](C)[C@H](NC(=O)[C@@H](NC(C)=O)C(C)C)C(=O)NCC(N)=O (Ac-Val-Ile-Gly-NH2) — lower, -0.45
- CCC(c1ccccc1)c1c(O)c2ccccc2oc1=O (stereo unspecified) — higher, 3.62
- O=CNc1cccc([N+](=O)[O-])c1 — lower, 1.4
- NC(=S)c1cccs1 — lower, 1.34
- CCCC(=O)OCn1cnc(CSCCNC(=NC#N)NC)c1C — lower, 1.6
- Oc1ccccc1C(F)(F)F — lower, 2.8
- CCCCCCCCCCCCOS(=O)(=O)[O-].[Na+] — lower, 1.6
- CN(C)C(=O)OCc1ccc(C#N)cc1 — lower, 1.67
- CCc1ccc(OC(=O)NC)cc1 — lower, 2.23
- Clc1cccc2c1CCNCC2 — lower, 2.4
- CCOC(=O)NC1=C(N2CC2)C(=O)C(NC(=O)OCC)=C(N2CC2)C1=O — lower, -0.02
- NC(=O)COc1ccccc1 — lower, 0.76
- NCCCCCc1cccnc1 — lower, 1.41
